System: Kuramochi cells
Assay: BrdU Cell Proliferation Assay
Assay type: cell-based
Conditions: read-out: BrdU - KURAMOCHI.1: IC50
Experimental: A BrdU assay was used as a measure of proliferation based on the DNA replication process of proliferating cells. BrdU, a pyrimidine analog, is added to the cell culture and incorporated into the DNA of proliferating cells. The presence of the BrdU analog was then measured through a colorimetric ELISA. After fixation and permeabilization of cells, peroxidase-conjugated antibody recognizing BrdU is added and allowed to incubate, followed by thorough washing to remove unbound antibody. In order to quantify the amount of bound antibody, peroxidase substrate is added and produces a color that can be measured at 450 nm.
On day −1, Kuramochi cells (Sekisui XenoTech JCRB0098) were seeded at 2,000 cells/well in columns 2-12 of a 96 well plate (Corning, CLS3596) in 150 μL media and allowed to adhere overnight at 37 degree with 5% CO2.
On day 0, the source plate was prepared by adding 10 mM compounds and performing 3-fold serial dilutions for a 10-point dose response of each compound. Using a multichannel pipette, 2 μL of the contents of the source plate were stamped into an intermediate plate with 500 μL of RPMI 1640 Media, GlutaMAX Supplement (Life Technologies, 61870127) in each well of a Nunc 96 DeepWell™ plate, non-treated 96 DeepWell plate, 2 mL/well, sterile, natural, 60/cs (Sigma Z717274) and mixed thoroughly. 50 μL from each well of this intermediate plate were added to 4 wells of a 96-well plate with previously seeded Kuramochi cells.
On day 4, the plates were developed using the BrdU ELISA Cell Proliferation Assay according to manufacturer's instructions (Roche, 11647229001). Briefly, BrdU was diluted 1:100 in Gibco®, OptiMEM® and 20 μL/well was added, shaken for 10 minutes at 350 rpm, and then returned to the incubator for 1 hour. Following incubation, the medium was discarded, and the cells were fixed by adding 200 μL of Fix/Denature solution. The anti-BrdU peroxidase antibody was diluted 1:1000 in OptiMEM, added at 100 μL/well, and incubated while shaking (350 rpm) for one hour. Three washes with PBS were performed to remove any unbound antibody, followed by the addition of 100 μL of substrate solution to each well. 25 μL/well of 1M sulfuric acid solution was then added to halt the reaction, and plates were read out using an Envision spectrophotometer (Perkin Elmer) set to read 450 nm absorbance. Background absorbance values from empty wells were subtracted from all samples and then normalized to DMSO treated wells.

Compound	IC50 [µM]
CC1(C)C[C@@H]1C(=O)N1CC2(CN(C(=O)c3cnn(Cc4ccccc4)c3)C[C@H]2C(=O)NC2CCCN(C(=O)c3ccccc3)C2)C1 (some centres unmarked) [I-59A]	> 10
CC1(C)C[C@@H]1C(=O)N1CC2(CN(C(=O)c3cnn(Cc4ccccc4)c3)C[C@@H]2C(=O)NC2CCCN(C(=O)c3ccccc3)C2)C1 (some centres unmarked) [I-59B]	> 10
CCCC(=O)N1CC2(C1)CN(C(=O)c1cnn(Cc3ccccc3)c1)C[C@H]2C(=O)N[C@H](C(=O)NC)[C@@H](C)OCc1ccccc1 [I-60A]	> 10
CCCC(=O)N1CC2(C1)CN(C(=O)c1cnn(Cc3ccccc3)c1)C[C@@H]2C(=O)N[C@H](C(=O)NC)[C@@H](C)OCc1ccccc1 [I-60B]	> 10
CC1(C)C[C@@H]1C(=O)N1CC2(CN(C(=O)c3cnn(Cc4ccccc4)c3)C[C@H]2C(=O)NC2CCN(C(=O)c3ccccc3)CC2)C1 [I-61A]	> 10
CC1(C)C[C@@H]1C(=O)N1CC2(CN(C(=O)c3cnn(Cc4ccccc4)c3)C[C@@H]2C(=O)NC2CCN(C(=O)c3ccccc3)CC2)C1 [I-61B]	> 10
CNC(=O)[C@@H](NC(=O)[C@@H]1CN(C(=O)c2cnn(Cc3ccccc3)c2)CC12CN(C(=O)CC(C)(C)C)C2)[C@@H](C)OCc1ccccc1 [I-62A]	> 10
CNC(=O)[C@@H](NC(=O)[C@H]1CN(C(=O)c2cnn(Cc3ccccc3)c2)CC12CN(C(=O)CC(C)(C)C)C2)[C@@H](C)OCc1ccccc1 [I-62B]	> 10
CC1(C)C[C@@H]1C(=O)N1CC2(CN(C(=O)c3cnn(Cc4ccccc4)c3)C[C@H]2C(=O)Nc2cccc(-c3ccccc3)c2)C1 [I-63A]	5 to 10
CC1(C)C[C@@H]1C(=O)N1CC2(CN(C(=O)c3cnn(Cc4ccccc4)c3)C[C@@H]2C(=O)Nc2cccc(-c3ccccc3)c2)C1 [I-63B]	> 10
COCC1CCCN(C(=O)[C@@H](NC(=O)C2CN(C(=O)c3cnn(Cc4ccccc4)c3)CC23CN(C(=O)[C@H]2CC2(C)C)C3)[C@@H](C)OCc2ccccc2)C1 (some centres unmarked) [I-64]	0.5 to 5
CNC(=O)[C@@H](NC(=O)[C@@H]1CN(C(=O)c2cnn(Cc3ccccc3)c2)CC12CN(C(=O)C(C)(C)C)C2)[C@@H](C)OCc1ccccc1 [I-65A]	> 10
CNC(=O)[C@@H](NC(=O)[C@H]1CN(C(=O)c2cnn(Cc3ccccc3)c2)CC12CN(C(=O)C(C)(C)C)C2)[C@@H](C)OCc1ccccc1 [I-65B]	> 10
CNC(=O)[C@@H](NC(=O)[C@@H]1CN(C(=O)c2cn[nH]c2)CC12CN(C(=O)[C@H]1CC1(C)C)C2)[C@@H](C)OCC1CCCCC1 [I-66A, (S)—N-((2S,3R)-3-(cyclohexylmethoxy)-1-(methylamino)-1-oxobutan-2-yl)-2-((S)-2,2-dimethylcyclopropane-1-carbonyl)-6-(1H-pyrazole-4-carbonyl)-2,6-diazaspiro[3.4]octane-8-carboxamide]	> 10
CNC(=O)[C@@H](NC(=O)[C@H]1CN(C(=O)c2cn[nH]c2)CC12CN(C(=O)[C@H]1CC1(C)C)C2)[C@@H](C)OCC1CCCCC1 [I-66B]	> 10
CNC(=O)[C@@H](NC(=O)[C@@H]1CN(C(=O)c2cnn(Cc3ccccc3)c2)CC12CN(C(=O)C1(C)CC1)C2)[C@@H](C)OCc1ccccc1 [I-67A, (S)-6-(1-benzyl-1H-pyrazole-4-carbonyl)-N-((2S,3R)-3-(benzyloxy)-1-(methylamino)-1-oxobutan-2-yl)-2-(1-methylcyclopropane-1-carbonyl)-2,6-diazaspiro[3.4]octane-8-carboxamide]	> 10
CNC(=O)[C@@H](NC(=O)[C@H]1CN(C(=O)c2cnn(Cc3ccccc3)c2)CC12CN(C(=O)C1(C)CC1)C2)[C@@H](C)OCc1ccccc1 [I-67B]	> 10
CNC(=O)[C@@H](NC(=O)[C@@H]1CN(CC2CCOCC2)CC12CN(C(=O)[C@H]1CC1(C)C)C2)[C@@H](C)OCc1ccccc1 [I-68A]	> 10
CNC(=O)[C@@H](NC(=O)[C@@H]1CN(C(=O)c2cnn(Cc3ccccc3)c2)CC12CN(C(=O)CC(C)C)C2)[C@@H](C)OCc1ccccc1 [I-69A]	> 10
CNC(=O)[C@@H](NC(=O)[C@H]1CN(C(=O)c2cnn(Cc3ccccc3)c2)CC12CN(C(=O)CC(C)C)C2)[C@@H](C)OCc1ccccc1 [I-69B]	> 10
CNC(=O)[C@@H](NC(=O)[C@@H]1CN(C(=O)C2CCNC2)CC12CN(C(=O)[C@H]1CC1(C)C)C2)[C@@H](C)OCc1ccccc1 (stereo partly drawn) [I-70A, (8S)—N-((2S,3R)-3-(benzyloxy)-1-(methylamino)-1-oxobutan-2-yl)-2-((S)-2,2-dimethylcyclopropane-1-carbonyl)-6-(pyrrolidine-3-carbonyl)-2,6-diazaspiro[3.4]octane-8-carboxamide]	> 10

Compound	IC50 [µM]
CNC(=O)[C@@H](NC(=O)[C@H]1CN(C(=O)C2CCNC2)CC12CN(C(=O)[C@H]1CC1(C)C)C2)[C@@H](C)OCc1ccccc1 (some centres unmarked) [I-70B]	> 10
CNC(=O)[C@@H](NC(=O)[C@@H]1CN(C(=O)c2cnn(Cc3ccccc3)c2)CC12CN(C(=O)C1(F)CC1)C2)[C@@H](C)OCc1ccccc1 [I-71A]	> 10
CNC(=O)[C@@H](NC(=O)[C@H]1CN(C(=O)c2cnn(Cc3ccccc3)c2)CC12CN(C(=O)C1(F)CC1)C2)[C@@H](C)OCc1ccccc1 [I-71B]	> 10
CNC(=O)[C@@H](NC(=O)[C@@H]1CN(C(=O)c2c[nH]c3ccccc23)CC12CN(C(=O)[C@H]1CC1(C)C)C2)[C@@H](C)OCc1ccccc1 [I-72A]	> 10
CNC(=O)[C@@H](NC(=O)[C@H]1CN(C(=O)c2c[nH]c3ccccc23)CC12CN(C(=O)[C@H]1CC1(C)C)C2)[C@@H](C)OCc1ccccc1 [I-72B]	> 10
CNC(=O)[C@@H](NC(=O)[C@@H]1CN(C(=O)c2cnn(Cc3ccccc3)c2)CC12CN(C(=O)C1(C#N)CC1)C2)[C@@H](C)OCc1ccccc1 [I-73A]	> 10
CNC(=O)[C@@H](NC(=O)[C@H]1CN(C(=O)c2cnn(Cc3ccccc3)c2)CC12CN(C(=O)C1(C#N)CC1)C2)[C@@H](C)OCc1ccccc1 [I-73B]	> 10
CCC(CC)C(=O)N1CC2(CN(C(=O)c3cnn(Cc4ccccc4)c3)C[C@H]2C(=O)N[C@H](C(=O)NC)[C@@H](C)OCc2ccccc2)C1 [I-74A]	> 10
CCC(CC)C(=O)N1CC2(CN(C(=O)c3cnn(Cc4ccccc4)c3)C[C@@H]2C(=O)N[C@H](C(=O)NC)[C@@H](C)OCc2ccccc2)C1 [I-74B]	> 10
CC1(C)C[C@@H]1C(=O)N1CC2(CN(C(=O)c3cnn(Cc4ccccc4)c3)C[C@H]2C(=O)Nc2cccc(Cc3ccccc3)c2)C1 [I-75A]	0.5 to 5
CC1(C)C[C@@H]1C(=O)N1CC2(CN(C(=O)c3cnn(Cc4ccccc4)c3)C[C@@H]2C(=O)Nc2cccc(Cc3ccccc3)c2)C1 [I-75B]	> 10
CNC(=O)[C@@H](NC(=O)[C@@H]1CN(C(=O)c2cnn(Cc3ccccc3)c2)CC12CN(C(=O)C(C)(C)C#N)C2)[C@@H](C)OCc1ccccc1 [I-76A]	> 10
CNC(=O)[C@@H](NC(=O)[C@H]1CN(C(=O)c2cnn(Cc3ccccc3)c2)CC12CN(C(=O)C(C)(C)C#N)C2)[C@@H](C)OCc1ccccc1 [I-76B]	> 10
CNC(=O)[C@@H](NC(=O)[C@@H]1CN(Cc2cnc[nH]2)CC12CN(C(=O)[C@H]1CC1(C)C)C2)[C@@H](C)OCc1ccccc1 [I-77A, (S)-6-((1H-imidazol-5-yl)methyl)-N-((2S,3R)-3-(benzyloxy)-1-(methylamino)-1-oxobutan-2-yl)-2-((S)-2,2-dimethylcyclopropane-1-carbonyl)-2,6-diazaspiro[3.4]octane-8-carboxamide]	> 10
CNC(=O)[C@@H](NC(=O)[C@H]1CN(Cc2cnc[nH]2)CC12CN(C(=O)[C@H]1CC1(C)C)C2)[C@@H](C)OCc1ccccc1 [I-77B]	> 10
CNC(=O)[C@@H](NC(=O)[C@@H]1CN(Cc2cnco2)CC12CN(C(=O)[C@H]1CC1(C)C)C2)[C@@H](C)OCc1ccccc1 [I-78A, (S)—N-((2S,3R)-3-(benzyloxy)-1-(methylamino)-1-oxobutan-2-yl)-2-((S)-2,2-dimethylcyclopropane-1-carbonyl)-6-(oxazol-5-ylmethyl)-2,6-diazaspiro[3.4]octane-8-carboxamide]	> 10
CNC(=O)[C@@H](NC(=O)[C@H]1CN(Cc2cnco2)CC12CN(C(=O)[C@H]1CC1(C)C)C2)[C@@H](C)OCc1ccccc1 [I-78B]	> 10
CNC(=O)[C@@H](NC(=O)[C@@H]1CN(S(=O)(=O)c2cnn(Cc3ccccc3)c2)CC12CN(C(=O)[C@H]1CC1(C)C)C2)[C@@H](C)OCc1ccccc1 [I-79A]	> 10
CNC(=O)[C@@H](NC(=O)[C@H]1CN(S(=O)(=O)c2cnn(Cc3ccccc3)c2)CC12CN(C(=O)[C@H]1CC1(C)C)C2)[C@@H](C)OCc1ccccc1 [I-79B]	> 10
CNC(=O)[C@@H](NC(=O)[C@@H]1CN(C(=O)c2cnn(Cc3ccccc3)c2)CC12CN(C(=O)C1(c3ccc(C(C)(C)C)cc3)CC1)C2)[C@@H](C)OCc1ccccc1 [I-80A]	> 10

Reference: US12065445B2, “CDK2 inhibitors and methods of using the same” (Cedilla Therapeutics, Inc., priority 2021, dated 2024)
